The species entered for this assay is Cavia porcellus. Nature of the assay: Evaluated for muscarinic activity using guinea pig ilea. It is filed as functional.

Each structure is given as a SMILES string.

Molecule `CC(=O)O[C@H]1CC[C@H]1[N+](C)(C)C.[I-]` had an ID50 of 83 nM. The value for `CC(=O)O[C@@H]1CC[C@H]1[N+](C)(C)C.[I-]` was 68 nM.
